In experiment [1] the target is T1, human recombinant ETB receptors (Homo sapiens, UniProt P24530).
T1 construct: expressed in transfected cells; host or cells: CHO cells (microsomal membranes)
T1 sequence (P24530 27-442): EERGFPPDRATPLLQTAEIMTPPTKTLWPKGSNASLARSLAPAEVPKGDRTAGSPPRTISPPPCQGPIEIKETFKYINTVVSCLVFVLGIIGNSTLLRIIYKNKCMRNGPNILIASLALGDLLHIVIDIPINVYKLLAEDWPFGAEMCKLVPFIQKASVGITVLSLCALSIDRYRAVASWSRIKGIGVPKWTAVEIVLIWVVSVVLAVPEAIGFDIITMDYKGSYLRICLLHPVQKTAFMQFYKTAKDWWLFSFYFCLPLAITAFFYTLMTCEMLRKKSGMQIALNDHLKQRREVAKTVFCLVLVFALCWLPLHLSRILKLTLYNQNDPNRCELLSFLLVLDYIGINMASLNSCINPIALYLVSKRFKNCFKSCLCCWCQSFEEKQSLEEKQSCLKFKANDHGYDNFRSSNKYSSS
Nature of the experiment: Inhibition of [125I]ET-1 binding to membranes from CHO cells carrying human ETB receptors. The procedure: (§1) 1) Inhibition of Endothelin Binding to Membranes from CHO Cells Carrying Human ET Receptors
(§2) For competition binding studies, membranes of CHO cells expressing human recombinant ETA or ETB receptors were used. Microsomal membranes from recombinant CHO cells were prepared and the binding assay made as previously described (Breu V., et al, FEBS Lett 1993; 334:210).
(§3) The assay was performed in 200 uL 50 mM Tris/HCl buffer, pH 7.4, including 25 mM MnCl2, 1 mM EDTA and 0.5% (w/v) BSA in polypropylene microtiter plates. […] After 2 h, the membranes were filtered on filterplates containing GF/C filters (Unifilterplates from Canberra Packard S.A. Zürich, Switzerland). To each well, 50 uL of scintillation cocktail was added (MicroScint 20, Canberra Packard S.A. Zürich, Switzerland) and the filter plates counted in a microplate counter (TopCount, Canberra Packard S.A. Zürich, Switzerland).
(§4) All the test compounds were dissolved, diluted and added in DMSO.

Experiment [2] deals with T2, human recombinant ETA receptors (Homo sapiens, UniProt P25101).
T2 construct: expressed in transfected cells; host or cells: CHO cells (microsomal membranes)
T2 sequence (P25101 21-427): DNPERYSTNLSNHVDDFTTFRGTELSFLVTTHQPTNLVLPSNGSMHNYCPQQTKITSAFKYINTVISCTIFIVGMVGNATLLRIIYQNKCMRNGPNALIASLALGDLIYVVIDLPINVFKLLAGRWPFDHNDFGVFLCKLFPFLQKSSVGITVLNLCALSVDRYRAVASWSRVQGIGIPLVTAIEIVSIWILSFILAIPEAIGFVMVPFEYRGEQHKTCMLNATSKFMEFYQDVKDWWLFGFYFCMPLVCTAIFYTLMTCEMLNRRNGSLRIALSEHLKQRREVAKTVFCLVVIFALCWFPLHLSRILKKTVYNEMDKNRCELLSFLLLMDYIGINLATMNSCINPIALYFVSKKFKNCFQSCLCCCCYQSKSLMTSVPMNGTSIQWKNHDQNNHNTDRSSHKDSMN
Nature of the experiment: Inhibition of [125I]ET-1 binding to membranes from CHO cells carrying human ETA receptors. The note with it: CHO cell membranes, 8 pM [125I]ET-1, 2 h at 20° C. The procedure:
as §1, §2, §3, §4

Data on 40 molecules can be found in patent US6951856B2, “Arylethene-sulfonamides” (Actelion Pharmaceuticals Ltd., priority 2000, dated 2005).

In general, IC50 refers to the concentration that inhibits the measured activity by half.

Read-outs that look alike come from different tables or passages of the source.

As for `CSc1cnc(OCCOc2ncnc(NS(=O)(=O)/C=C/c3ccccc3)c2-c2ccc(Cl)cc2)nc1` [Example 51], the IC50 in experiment [1] was 173 nM; in experiment [2], 4.56 nM.

Regarding `O=S(=O)(/C=C/c1ccccc1)Nc1ncnc(OCCOc2ncc(Cl)cn2)c1-c1ccc(Br)cc1` [Example 87], the IC50 in experiment [1] came to 439 nM; in experiment [2], 3.9 nM.

As for `COc1cnc(OCCOc2nc(C)nc(NS(=O)(=O)/C=C/c3ccccc3)c2-c2ccc(C)cc2)nc1` [Example 139], the IC50 in experiment [1] stood at 1690 nM; in experiment [2] it was 9.8 nM.

With `COc1cnc(OCCOc2nc(N3CCOCC3)nc(NS(=O)(=O)/C=C/c3ccccc3)c2Oc2ccccc2OC)nc1` [Example 197], the IC50 in experiment [1] worked out at 220 nM; in experiment [2], 5 nM.

Take `COc1cnc(OCCOc2ncnc(NS(=O)(=O)/C=C/c3ccccc3)c2Oc2cc(OC)ccc2Cl)nc1` [Example 226]: the IC50 turned out to be 1550 nM in experiment [1] and 15.4 nM in experiment [2].

In the case of `COc1cnc(OCCOc2nc(-c3ncccn3)nc(NS(=O)(=O)/C=C/c3cccs3)c2-c2ccc(C)cc2)nc1` [Example 74], the IC50 in experiment [1] came to 3530 nM; in experiment [2], 7.8 nM.

Consider `COc1nc(NS(=O)(=O)/C=C/c2ccccc2)c(-c2ccccc2)c(OCCOc2ncc(Br)cn2)n1` [Example 114], for which the IC50 turned out to be 3880 nM in experiment [1] and 18.4 nM in experiment [2].

In the case of `Cc1ccc(-c2c(NS(=O)(=O)/C=C/c3ccccc3)ncnc2OCCOc2ncc(Br)cn2)cc1C` [Example 40], the half-inhibitory concentration (IC50) in experiment [1] worked out at 629 nM; in experiment [2], 6.2 nM.

As to `Cc1ccc(-c2c(NS(=O)(=O)/C=C/c3cccs3)nc(-c3ncccn3)nc2OCCOc2ncc(Br)cn2)cc1` [Example 72], the IC50 turned out to be 2380 nM in experiment [1] and 9 nM in experiment [2].

In the case of `CS(=O)(=O)c1nc(NS(=O)(=O)/C=C/c2ccccc2)c(-c2ccccc2)c(OCCOc2ncc(Br)cn2)n1` [Example 107], the IC50 turned out to be 4640 nM in experiment [1] and 8.5 nM in experiment [2].

Consider `COc1cnc(OCCOc2nc(-c3ccncc3)nc(NS(=O)(=O)/C=C/c3ccsc3)c2Oc2ccccc2OC)nc1` [Example 179], for which the values for the IC50 in experiment [1] and in experiment [2] were 699 nM and 9 nM, respectively.

With `CSc1nc(NS(=O)(=O)/C=C/c2ccccc2)c(-c2ccccc2)c(OCCOc2ncc(Br)cn2)n1` [Example 101], the results for the IC50 in experiment [1] and in experiment [2] were 8680 nM and 30.7 nM, respectively.

As for `Cc1ccc(-c2c(NS(=O)(=O)/C=C/c3ccccc3)ncnc2OCCOc2ccc(C(F)(F)F)cn2)cc1` [Example 5, 2-Phenyl-ethenesulfonic acid {5-p-tolyl-6-[2-(5-trifluoromethyl-pyridin-2-yloxy)-ethoxy]-pyrimidin-4-yl}-amide], the IC50 was found to be 130 nM in experiment [1] and 12.8 nM in experiment [2].

With `COc1ccccc1Oc1c(NS(=O)(=O)/C=C/c2cccs2)nc(-c2ncccn2)nc1OCCOc1ncc(Br)cn1` [Example 157], the results for the IC50 in experiment [1] and in experiment [2] were 4500 nM and 21.7 nM, respectively.

On to `Cc1ccc(/C=C/S(=O)(=O)Nc2ncnc(OCCOc3ncc(Cl)cn3)c2-c2ccc(C)cc2)cc1` [Example 24], for which the IC50 in experiment [1] stood at 657 nM; in experiment [2] it was 21.7 nM.

Take `COc1ccccc1Oc1c(NS(=O)(=O)/C=C/c2ccsc2)nc(-c2ccncc2)nc1OCCOc1ncc(Cl)cn1` [Example 181]: the results for the IC50 in experiment [1] and in experiment [2] were 1980 nM and 7.1 nM, respectively.

Consider `Cc1ccc(/C=C/S(=O)(=O)Nc2ncnc(OCCOc3ncc(Cl)cn3)c2-c2ccc(Cl)cc2)cc1` [Example 60], for which the figures for the IC50 in experiment [1] and in experiment [2] were 558 nM and 30 nM, respectively.

For the molecule `COc1ccccc1Oc1c(NS(=O)(=O)/C=C/c2cccs2)ncnc1OCCOc1ncc(Br)cn1` [Example 214], the IC50 in experiment [1] was 3940 nM; in experiment [2] it was 39 nM.

Consider `O=S(=O)(/C=C/c1cccs1)Nc1ncnc(OCCOc2ncc(Cl)cn2)c1-c1ccc(Br)cc1` [Example 89], for which the IC50 turned out to be 1220 nM in experiment [1] and 4.6 nM in experiment [2].

`O=S(=O)(/C=C/c1ccccc1)Nc1ncnc(OCCOc2ncc(Cl)cn2)c1-c1ccc(Cl)cc1` [Example 47]: the IC50 worked out at 752 nM in experiment [1] and 7.04 nM in experiment [2].

As to `COc1ccc(-c2c(NS(=O)(=O)/C=C/c3ccccc3)ncnc2OCCOc2ncc(Br)cn2)cc1` [Example 118], the IC50 in experiment [1] is 1010 nM; in experiment [2], 9.8 nM.

With `Cc1ccc(-c2c(NS(=O)(=O)/C=C/c3ccccc3)nc(-c3cnccn3)nc2OCCOc2ncc(Br)cn2)cc1` [Example 125], the IC50 in experiment [1] worked out at 2700 nM; in experiment [2], 6.7 nM.

On to `Cc1ccc(-c2c(NS(=O)(=O)/C=C/c3cccs3)nc(-c3ncccn3)nc2OCCOc2ncc(Cl)cn2)cc1` [Example 73], for which the IC50 in experiment [1] is 4760 nM; in experiment [2], 7.6 nM.

As for `COc1ccc(Cl)c(Oc2c(NS(=O)(=O)/C=C/c3ccccc3)ncnc2OCCOc2ncc(Br)cn2)c1` [Example 225], the IC50 came out at 830 nM in experiment [1] and 5.2 nM in experiment [2].

On to `Cc1ccc(-c2c(NS(=O)(=O)/C=C/c3cccs3)nc(-c3ncccn3)nc2OCCOc2ncc(Br)cn2)cc1` [Example 145], for which the IC50 in experiment [1] (CHO cell membranes, 8 pM [125I]ET-1, 2 h at 20° C.) stood at 2380 nM; in experiment [2], 9.1 nM.

On to `COc1ccccc1Oc1c(NS(=O)(=O)/C(C)=C/c2ccccc2)nc(N2CCOCC2)nc1OCCOc1ncc(Br)cn1` [Example 202], for which the IC50 was determined as 349 nM in experiment [1] and 2.4 nM in experiment [2].

As to `COc1ccc(-c2c(NS(=O)(=O)/C=C/c3ccccc3)ncnc2OCCOc2ccc(Br)cn2)cc1` [Example 124], the IC50 in experiment [1] came to 309 nM; in experiment [2], 33.2 nM.

With `COc1ccccc1Oc1c(NS(=O)(=O)/C=C/c2cccs2)nc(-c2ncccn2)nc1OCCOc1ncccn1` [Example 158], the IC50 was determined as 1260 nM in experiment [1] and 12.1 nM in experiment [2].

Take `O=S(=O)(/C=C/c1ccccc1)Nc1ncnc(OCCOc2ccc(C(F)(F)F)cn2)c1-c1ccc(Cl)cc1` [Example 45]: the half-inhibitory concentration (IC50) in experiment [1] stood at 332 nM; in experiment [2], 19.3 nM.

Regarding `C/C(=C\c1ccccc1)S(=O)(=O)Nc1ncnc(OCCOc2ncc(Br)cn2)c1-c1ccc(Cl)cc1` [Example 62], the figures for the IC50 in experiment [1] and in experiment [2] were 4900 nM and 58 nM, respectively.

For the molecule `COc1cnc(OCCOc2ncnc(NS(=O)(=O)/C=C/c3cccs3)c2-c2ccc(Br)cc2)nc1` [Example 90], the IC50 in experiment [1] is 336 nM; in experiment [2] it was 4.3 nM.

`Cc1ccc(-c2c(NS(=O)(=O)/C=C/c3ccccc3)ncnc2OCCOc2nc3ccccc3o2)cc1` [Example 16]: the IC50 in experiment [1] turned out to be 1130 nM; in experiment [2], 62.2 nM.

On to `COc1cccc(Oc2c(NS(=O)(=O)/C=C/c3ccccc3)ncnc2OCCOc2ncc(Br)cn2)c1` [Example 230], for which the IC50 in experiment [1] was determined as 937 nM; in experiment [2], 12.3 nM.

For the molecule `Cc1ccc(-c2c(NS(=O)(=O)/C=C/c3ccccc3)ncnc2OCCOc2ccc(Br)cc2)cc1` [Example 3, 2-phenyl-ethenesulfonic acid {6-[2-(4-bromo-phenoxy)-ethoxy]-5-p-tolyl-pyrimidin-4-yl}-amide], the concentration for half-maximal inhibition (IC50) in experiment [1] worked out at 722 nM; in experiment [2], 46.3 nM.

Regarding `COc1ccc(-c2c(NS(=O)(=O)/C=C/c3ccccc3)ncnc2OCCOc2ncc(OC)cn2)cc1` [Example 119], the IC50 in experiment [1] came out at 735 nM; in experiment [2] it was 55 nM.

In the case of `COc1cnc(OCCOc2ncnc(NS(=O)(=O)/C=C/c3ccccc3)c2-c2ccc(C)cc2)nc1` [Example 21], the values for the half-inhibitory concentration (IC50) in experiment [1] and in experiment [2] were 749 nM and 14.7 nM, respectively.

Regarding `Cc1ccc(-c2c(NS(=O)(=O)/C=C/c3ccccc3)ncnc2OCCOc2cnccn2)cc1` [Example 4], the half-maximal inhibitory concentration (IC50) in experiment [1] is 8600 nM; in experiment [2] it was 273 nM.

Take `COCCOc1nc(NS(=O)(=O)/C=C/c2ccccc2)c(-c2ccccc2)c(OCCOc2ncc(Br)cn2)n1` [Example 113]: the IC50 in experiment [1] was more than 10000 nM; in experiment [2], 14.7 nM.

For `COc1ccccc1Oc1c(NS(=O)(=O)/C=C/c2ccccc2)nc(-c2ccncc2)nc1OCCOc1ncc(Cl)cn1` [Example 164], the IC50 came to 1560 nM in experiment [1] and 10 nM in experiment [2].

As to `O=S(=O)(/C=C/c1ccccc1)Nc1nc(-c2ccncc2)nc(OCCOc2ncc(Br)cn2)c1-c1ccc(Cl)cc1` [Example 65], the IC50 in experiment [1] was 2520 nM; in experiment [2], 17 nM.
